Measured values reported in patent publication US20100016335A1, “NOVEL AMINOPYRIDINE DERIVATIVES HAVING AURORA A SELECTIVE INHIBITORY ACTION” (priority 2006, published 2010).
Structures can show the parent of a compound that is named as a salt.

Experiments:
[1] = target: T1, human Aurora A (Homo sapiens, UniProt O14965); test: Aurora A inhibitory activity (IMAP fluorescence polarization phosphorylation assay); assay type: biochemical; conditions: 20 μM ATP, 30° C., 120 minutes
T1 construct: His (N); made in house; host or cells: Escherichia coli BL21-CodonPlus(DE3)-RIL
T1 sequence (O14965 1-403): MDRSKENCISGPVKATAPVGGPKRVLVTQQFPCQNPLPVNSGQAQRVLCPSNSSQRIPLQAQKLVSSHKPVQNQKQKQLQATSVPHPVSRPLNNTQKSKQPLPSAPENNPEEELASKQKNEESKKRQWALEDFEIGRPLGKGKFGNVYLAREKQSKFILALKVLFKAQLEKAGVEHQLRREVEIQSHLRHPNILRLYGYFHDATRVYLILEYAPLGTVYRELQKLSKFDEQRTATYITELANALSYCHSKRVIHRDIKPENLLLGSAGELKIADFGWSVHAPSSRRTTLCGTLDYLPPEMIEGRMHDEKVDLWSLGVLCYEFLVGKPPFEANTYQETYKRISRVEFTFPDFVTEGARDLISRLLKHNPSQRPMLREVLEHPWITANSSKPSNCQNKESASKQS
Excerpt: cDNA of N-terminal His-tagged human Aurora A was integrated into an expression vector, which was then highly expressed in Escherichia coli BL21-CodonPlus(DE3)-RIL cells. The Escherichia coli was harvested and lysed, and then the His-tagged human Aurora A protein was applied onto a nickel chelate column and eluted from the column with imidazole. The active fractions were desalted with a desalting column to give a purified enzyme.
For the phosphorylation reaction, the method by Upstate, Inc. [Kinase Profiler™ Assay Protocols] was referred to, and phosphorylation of the substrate was detected using IMAP® technology (Molecular Devices, Co. Ltd.) (Gaudet E W. et. al, J. Biomol. Screen, 8, 164-175 (2003)). Concretely, the phosphorylation reaction and the detection were carried out as follows:
The phosphorylation reaction was conducted using 384 well plate, and the reaction volume was 10 μl/well. The reaction buffer is comprised of 50 mM Tris-chloride buffer (pH 7.4), 15 mM magnesium acetate, and 0.2 mM ethylenediamine-N,N,N′,N′-tetraacetic acid (EDTA). Thereto, the purified Aurora A protein, 100 nM of the peptide substrate, and 20 μM of adenosine 5′-triphosphate (ATP) were added, and then the reaction was carried out at 30° C. for 120 minutes.
Thereafter, in order to terminate and detect the reaction, 30 μl of the IMAP (registered trademark) binding reagent (IMAP Progressive Binding Reagent, R7284) that had been diluted (1:400) in the 1×IMAP binding buffer A (IMAP Progressive Binding Buffer A, 5× stock, R7282) was added to each well. The solution stood still for 60 minutes in the dark, and then fluorescence polarization was measured using a high-end microplate reader (excitation wavelength: 485 nm; emission wavelength: 520 nm).
(§1) The compound to be tested was added to the reaction system such that a dilution series of the compound in dimethylsulfoxide (DMSO) was prepared, and then 0.5 μL of this solution was added for the testing to each well. Each control well was provided by adding 0.5 μL of DMSO to the well in place of the DMSO solution containing the compound to be tested.

[2] = target: T2, GST-tagged human Aurora B(AurB)/His-tagged human INCENP complex proteins (Homo sapiens, UniProt Q96GD4); test: Aurora B inhibitory activity (Method A, IMAP assay kit); assay type: biochemical; conditions: 40 μM ATP, 25° C., 45 minutes
T2 construct: GST; purchased Carna Biosciences, Inc
Procedure: An assay development kit for IMAP (registered trademark) (Aurora B), purchased from Carna Biosciences, Inc., was used for phosphorylation reaction, and the phosphorylation of a substrate was detected using the IMAP technology. […] Using the same, the phosphorylation reaction was conducted in accordance with a partially revised protocol attached to the kit, and then the phosphorylation of the substrate was detected using the IMAP technology.
For the phosphorylation reaction, 384 well plate was used, and the reaction volume was 10 μl/well. The composition of the reaction buffer (assay buffer) is comprised of 20 mM of HEPES buffer (pH 7.4), 0.01% Tween-20, and 2 mM of dithiothreitol (DTT). Thereto, AurB/INCENP complex protein, 100 nM of the substrate, and 40 μM of ATP, and 1 mM of magnesium salt were added, and then the reaction was conducted at 25° C. for 45 minutes. Thereafter, in order to terminate and detect the reaction, 30 μl of the IMAP (registered trademark) binding reagent (IMAP Progressive Binding Reagent, R7284) that had been diluted (1:400) in the 1× IMAP binding buffer A (IMAP Progressive Binding Buffer A, 5× stock, R7282) was added to each well.
as §1, with “DMSO” for “dimethylsulfoxide (DMSO)”

T2 sequence (Q96GD4 whole entry): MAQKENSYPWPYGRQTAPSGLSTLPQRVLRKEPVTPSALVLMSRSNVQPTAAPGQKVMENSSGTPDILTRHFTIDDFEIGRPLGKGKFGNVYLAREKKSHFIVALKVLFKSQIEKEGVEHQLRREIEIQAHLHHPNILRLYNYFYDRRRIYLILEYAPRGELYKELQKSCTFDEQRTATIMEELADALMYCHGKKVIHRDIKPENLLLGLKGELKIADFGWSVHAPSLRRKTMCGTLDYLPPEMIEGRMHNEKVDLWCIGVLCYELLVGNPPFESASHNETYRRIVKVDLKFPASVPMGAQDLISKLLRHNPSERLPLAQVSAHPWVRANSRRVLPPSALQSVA
T2 sequence (Q9NQS7 803-916 partner limits assumed): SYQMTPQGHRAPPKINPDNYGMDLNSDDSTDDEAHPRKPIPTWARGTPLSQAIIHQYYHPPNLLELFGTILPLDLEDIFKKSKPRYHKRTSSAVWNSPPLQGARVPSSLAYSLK

Structure (SMILES)	IC50 [1]	IC50 [2]
O=C(O)[C@]1(Cc2cccc(Nc3nccs3)n2)CC[C@@H](Oc2cccc(Cl)c2)CC1 [Example 5, trans-4-(3-chlorophenoxy)-1-((6-(1,3-thiazol-2-ylamino)pyridin-2-yl)methyl)cyclohexanecarboxylic acid hydrochloride]	0.12 nM	130 nM
O=C(O)[C@]1(Cc2cccc(Nc3cc[nH]n3)n2)CC[C@@H](Oc2cccc(Cl)c2F)CC1 [Example 10, trans-4-(3-chloro-2-fluorophenoxy)-1-((6-(1H-pyrazol-3-ylamino)pyridin-2-yl)methyl)cyclohexanecarboxylic acid trifluoroacetate]	0.15 nM	200 nM
CNC(=O)[C@]1(Cc2cccc(Nc3cc[nH]n3)n2)CC[C@@H](Oc2cccc(Cl)c2F)CC1 [Example 12, trans-4-(3-chloro-2-fluorophenoxy)-N-methyl-1-((6-(1H-pyrazol-3-ylamino)pyridin-2-yl)methyl)cyclohexanecarboxamide]	2.5 nM	> 1000 nM
CN(C)C(=O)[C@]1(Cc2cccc(Nc3cc[nH]n3)n2)CC[C@@H](Oc2cccc(Cl)c2F)CC1 [Example 13, trans-4-(3-chloro-2-fluorophenoxy)-N,N-dimethyl-1-((6-(1H-pyrazol-3-ylamino)pyridin-2-yl)methyl)cyclohexanecarboxamide]	1.3 nM	> 1000 nM
Fc1c(Cl)cccc1O[C@H]1CC[C@](Cc2cccc(Nc3cc[nH]n3)n2)(c2nn[nH]n2)CC1 [Example 17, 6-((trans-4-(3-chloro-2-fluorophenoxy)-1-(2H-tetrazol-5-yl)cyclohexyl)methyl)-N-1H-pyrazol-3-ylpyridin-2-amine trifluoroacetate]	0.45 nM	350 nM
CC(=O)N[C@]1(Cc2cccc(Nc3nccs3)n2)CC[C@@H](Oc2cccc(Cl)c2F)CC1 [Example 19, N-(trans-4-(3-chloro-2-fluorophenoxy)-1-((6-(1,3-thiazol-2-ylamino)pyridin-2-yl)methyl)cyclohexyl)acetamide]	0.82 nM	320 nM
N=c1[nH]nc([C@]2(Cc3cccc(Nc4cc[nH]n4)n3)CC[C@@H](Oc3cccc(C(F)(F)F)c3F)CC2)o1 [Example 21, 6-((trans-4-(2-fluoro-3-(trifluoromethyl)phenoxy)-1-(5-imino-4,5-dihydro-1,3,4-oxadiazol-2-yl)cyclohexyl)methyl)-N-1H-pyrazol-3-ylpyridin-2-amine trifluoroacetate]	2.8 nM	> 1000 nM
Cc1cc(Nc2cc[nH]n2)nc(C[C@]2(c3n[nH]c(=O)o3)CC[C@H](Oc3cccc(Cl)c3F)CC2)n1 [Example 41, 5-(trans-4-(3-chloro-2-fluorophenoxy)-1-((4-methyl-6-(1H-pyrazol-3-ylamino)pyrimidin-2-yl)methyl)cyclohexyl)-1,3,4-oxadiazol-2(3H)-one trifluoroacetate]	0.18 nM	110 nM
Fc1c(O[C@H]2CC[C@](Cc3cccc(Nc4cc[nH]n4)n3)(c3n[nH]c(=S)o3)CC2)cccc1C(F)(F)F [Example 42, 5-(trans-4-(2-fluoro-3-(trifluoromethyl)phenoxy)-1-((6-(1H-pyrazol-3-ylamino)pyridin-2-yl)methyl)cyclohexyl)-1,3,4-oxadiazole-2(3H)-thione trifluoroacetate]	0.23 nM	142 nM

Further molecules by falling IC50 [1], results first:

IC50 [1]	IC50 [2]	Structure (SMILES)
4.1 nM	> 1000 nM	Fc1c(O[C@H]2CC[C@](Cc3cccc(Nc4cc[nH]n4)n3)(c3nnco3)CC2)cccc1C(F)(F)F [Example 22, 6-((trans-4-(2-fluoro-3-(trifluoromethyl)phenoxy)-1-(1,3,4-oxadiazol-2-yl)cyclohexyl)methyl)-N-1H-pyrazol-3-ylpyridin-2-amine]
3.5 nM	710 nM	Cc1nnc([C@]2(Cc3cccc(Nc4cc[nH]n4)n3)CC[C@@H](Oc3cccc(C(F)(F)F)c3F)CC2)s1 [Example 28, 6-((trans-4-(2-fluoro-3-(trifluoromethyl)phenoxy)-1-(5-methyl-1,3,4-thiadiazol-2-yl)cyclohexyl)methyl)-N-1H-pyrazol-3-ylpyridin-2-amine]
1.6 nM	> 1000 nM	N#C[C@]1(Cc2cccc(Nc3cc[nH]n3)n2)CC[C@@H](Oc2cccc(Cl)c2F)CC1 [Example 16, trans-4-(3-chloro-2-fluorophenoxy)-1-((6-(1H-pyrazol-3-ylamino)pyridin-2-yl)methyl)cyclohexanecarbonitrile]
0.87 nM	690 nM	Cc1nnc([C@]2(Cc3cccc(Nc4cc[nH]n4)n3)CC[C@@H](Oc3cccc(Cl)c3F)CC2)o1 [Example 25, 6-((trans-4-(3-chloro-2-fluorophenoxy)-1-(5-methyl-1,3,4-oxadiazol-2-yl)cyclohexyl)methyl)-N-1H-pyrazol-3-ylpyridin-2-amine]
0.17 nM	130 nM	O=C(O)[C@]1(Cc2cccc(Nc3nccs3)n2)CC[C@@H](Oc2cccc(C(F)(F)F)c2)CC1 [Example 7, trans-1-((6-(1,3-thiazol-2-ylamino)pyridin-2-yl)methyl)-4-(3-(trifluoromethyl)phenoxy)cyclohexanecarboxylic acid hydrochloride]
0.09 nM	95 nM	O=C(O)[C@]1(Cc2cc(Br)cc(Nc3nccs3)n2)CC[C@@H](Oc2cccc(Cl)c2F)CC1 [Example 40, trans-1-((4-bromo-6-(1,3-thiazol-2-ylamino)pyridin-2-yl)methyl)-4-(3-chloro-2-fluorophenoxy)cyclohexanecarboxylic acid hydrochloride]
